According to patent publication US20110306071A1, “Compositions and Methods for Identifying Substrate Specificity of Inhibitors of Gamma Secretase” (ELAN PHARMACEUTICALS, INC., priority 2007, published 2011):

Legend:
gamma secretase = assay: Aβ production from C99GVP and mutant or chimeric substrates in transfected HEK cells (ELISA, IP/Western blot); type: cell-based, Human; conditions: for effect on secreted Aβ / Aβ production compared with C99GVP control: FIGS. 8C, 8D, 9B, 9C; for drop of Aβ40: Aβ40 ELISA, FIG. 9C; for reduction in total Aβ: IP/Western blot densitometry, FIG. 9B
Excerpt: Plasmid Construction of JMD Chimeric Substrates: A pcDNA3.1-C99 plasmid similar to the previously described SPA4CT-LE construct (Dyrks, et al., FEBS Lett., 1992; 309: 20-24) was generated by standard PCR techniques. The APP signal peptide was fused to the N-terminus of the C99 fragment via a dipeptide leucine-glutamic acid (LE) linker. The strategy used to generate the pcDNA3.1-C99GVP construct was similar to a previously described method (Karlstrom, H., et al., J. Biol. Chem., 2002; 277: 6763-6766). (See, generally, FIG. 3). Briefly, an AscI site was introduced immediately 3′ of the nucleotides encoding the triple-lysine (K) membrane anchor of C99, where the GVP coding sequence was subsequently inserted in frame (to the C-terminal side of the lysine membrane anchor sequence of C99). […] All three chimeras were constructed by using a two-stage PCR method with two pairs of overlapping primers (for list of primers, see Table I). These chimeric substrates were characterized to assess activity as gamma secretase substrates and subsequent production and secretion of Aβ and AICD (FIGS. 6-7). […] The C99GVP-SLSS quadruple JMD chimera was also constructed with the same PCR method. Point mutations within the luminal juxtamembrane domain (i.e., C99GVP-G25S, S26L, N27S and K28S; FIGS. 2 and 9A-D) were generated using QuikChange (Stratagene) site-directed mutagenesis kit according to the manufacturer's instructions. All cDNAs were verified by sequencing. The Aβ and Aβ-like peptides generated from C99GVP and the various chimeric substrates were numbered with reference to the first N-terminal residue (Asp-1) of the Aβ peptide.
Cell Culture and Transient Transfection: Human embryonic kidney 293 (HEK 293) cells (ATCC) were grown in Dulbecco's Modified Eagle Medium with High Glucose (DMEM, obtained from Gibco/Invitrogen, Cat #11960) supplemented with 10% fetal bovine serum (Hyclone, SV 30014.03) and 50 units/ml penicillin and streptomycin (37° C., 5% CO2). Cells were used at less than passage number 30. At the time of seeding, viability of cells was greater than 95% as determined using a Vi-Cell Analyzer (Beckman-Coulter). Confluence of cells on plates was kept at greater than 95% during all phases of the experiment as determined with a standard tissue culture inverted microscope. All transfections were carried out on 5×10^6 cells in 6-well tissue culture plates (Costar). The following 3 plasmids: pG5E1B-luc, 200 ng (gift from R. Maurer, OHSU); pCMV-β-gal, 100 ng (gift from R. Maurer, OHSU); C99GVP or the various chimeric constructs, 200-400 ng were added together to each well. FuGENE6 reagent (Roche Cat. #11-814443001) was used according to manufacturer's protocol for the transient transfection of adherent cells. Transfected cells were reseeded onto 12 well (2×10^6 cells) and/or 96-well (5×10^4 cells) plates (Costar) 16 h post-transfection; fresh media was added either with or without gamma secretase inhibitors. The cells and conditioned media were harvested 48 h post-transfection for analysis.
Immunoprecipitation (IP) and Western Blot Detection of Aβ: Total Aβ peptides in conditioned medium or cell lysate were immuno-precipitated at 4° C. overnight with 4 μg of the 2H3 antibody, followed by incubation with 50 μl of a 50% protein G-Sepharose (GE Healthcare) slurry for 1 hr and three washes in the same lysis buffer as described above in the Western Blot discussion. Proteins were eluted from the solid-phase immunoprecipitates in Laemmli sample buffer by heating at 70° C. for 5 min and resolved on 10-20% Tris-Tricine SDS-PAGE or the modified Tris-Tricine/8M urea gels (Qi-Takahara, Y., et al., J Neurosci. (2005; 25, 436-445). After transferring onto nitrocellulose membranes (Invitrogen), the membranes were heated to 98° C. for 5 min in PBS, immunostained with the 2H3 antibody and visualized with Super-signal West Pico chemiluminescent substrate (Pierce). Each experiment was repeated at least three times. […]

[1] = target: T1, gamma secretase cleavage of C99GVP (AICD-GVP) (Homo sapiens, UniProt P49768); assay: Luciferase reporter gene assay, AICD-GVP transactivation from C99GVP in HEK293 cells; type: cell-based; conditions: C99-GVP, FIG. 5C
T1 construct: active gamma secretase is endogenously and constitutively produced by the cell cultures; endogenous in cells; host or cells: HEK 293, co-transfected with C99GVP, pG5E1B-luc and pCMV-β-gal
Method: Luciferase Reporter Gene Assay: Luciferase reporter assays were carried out 48 hr post-transfection. Cells seeded on 96-well plates (BD Biosciences) were washed once with PBS and harvested in 20 μl of reporter lysis buffer (Promega) per well. After adding 100 μl of luminescent substrate (Promega), the luciferase activity was measured with a MicroLumatPlus microplate luminometer (Berthold Technologies). The β-galactosidase activity was measured similarly, using a luminescent β-galactosidase substrate (BD Biosciences). As a control for transfection efficiency and general effect on transcription, the luciferase activity was normalized by measuring β-galactosidase activity on a duplicate plate. All measurements were done in triplicate and repeated at least three times.
Luciferase Assay. After confirming AICD-GVP generation in HEK cells, its ability to transactivate a luciferase reporter gene that contains Gal4 response elements in the upstream activation sequence (UAS) was tested. […] Some residual luciferase activity remained in the presence of excess gamma secretase inhibitors, even though identical treatment completely abolished AICD production as measured by Western blot (FIG. 5B). […]

[2] = target: T2, gamma secretase γ and ε cleavage of Fas-APPsw-DD (Homo sapiens, UniProt P49768); assay: Concurrent Aβ and AICD ELISA in Fas-APPsw-DD transfected 293 cells (APP γ versus ε cleavage); type: cell-based
T2 construct: active gamma secretase is endogenously and constitutively produced by the cell cultures; endogenous in cells; host or cells: HEK 293, transfected with Fas-APPsw-DD
Method: Polyclonal antibody AICD ELISA. HEK 293 cells were grown under standard conditions to ˜90% confluence. Cells were harvested, counted, and subsequently plated onto PDL-coated 60 mm dishes at 2×10^6 cells/dish in 5 mL media. The cells were allowed to settle onto the dishes for ˜4 hours. Transfection of various construct into cells was performed using standard techniques using Lipofectamine 2000™ (LF2K) (Invitrogen). Briefly, 2 μg plasmid DNA and 4 μL LF2K were diluted into separate 150 μL aliquots of Opti-MEM (Gibco), and allowed to stand for 10-15 minutes. The two aliquots were then mixed, and the DNA:Lipid complex allowed to form for about 20 minutes. The 300 μL DNA:Lipid complex was then added to the cells in 3 mL fresh media, and incubated overnight. In order to administer potential or known gamma secretase inhibitor compounds to cells, the transfected cells were harvested, replated into PDL-coated 24-well plates at 200,000 cells/well, and allowed to settle onto the plates for ˜4 hours. Cells were washed, and 500 μL fresh media added. […]
The term ‘non-selective’ in this instance refers to lack of selectivity for cell Aβ over Notch signaling (or GammaAPP over GammaNotch). […] The calculated γ/ε selectivity of the non-selective compounds (FIG. 11 and Table I) were 0.7, 1.1, 1.8 and 1.9 for DAPT, 44989, 46719 and the Merck compound, respectively. […]

[3] = tested on: gamma secretase (secreted Aβ40 and Aβ42); assay: Aβ sandwich ELISA of media from C99GVP or APP transfected HEK cells treated with inhibitors; type: cell-based, Human
Method: Inhibitor Treatment of Transfected HEK Cell: The transition state analogue gamma secretase inhibitor-L685,458 (Sigma) and the peptidomimetic inhibitor-DAPT (Dovey, H. F., et al., J Neurochem., 2001; 76:173-181) were dissolved in DMSO to make 20 mM stocks. Similarly, a number of Elan's series of sulfonamide inhibitors were prepared and used as described herein (see, also FIGS. 11-14). Inhibitors were added to cell cultures (e.g., HEK) at the indicated final concentration, and the treated cells were harvested 48 h post-transfection. The metallo-proteinase inhibitor TAPI-1 (Calbiochem) was used at a final concentration of 40 μM. The Aβ-degrading enzyme inhibitors, Bacitracin (Calbiochem) and phosphoramidon (Calbiochem) were used at final concentration of 1 mg/ml and 40 μM, respectively. All inhibitor experiments were performed in triplicate and repeated at least three times.
ELISAs used to quantify different Aβ species were performed using standard techniques as described above and in (Johnson-Wood, K., et al., Proc. Natl. Acad. Sci. U.S.A., 1997; 94: 1550-1555, incorporated by reference). The Aβ40 and Aβ42 peptides in the samples were captured onto 2G3 or 21F12 antibody coated plates, respectively, and detected with a biotinylated 2H3 antibody. The fluorescence signal generated from a streptavidin-alkaline phosphatase conjugate (Roche) was measured with a CytoFlour microplate reader (Applied Biosystems). Synthetic Aβ40 or Aβ42 peptides (Anaspec) were used to generate standard curves (FIG. 10). All measurements were done in triplicate.
Next, Aβ generation was characterized from C99GVP. Wild type HEK cells and the mock-transfection control secreted little Aβ into the conditioned media (FIG. 5D, lane 1). In contrast, transient expression of C99GVP led to robust Aβ production, as measured by IP/Western blot (FIG. 5D) and ELISAs that detect Aβ 40 and Aβ42 species, respectively ([…], top panel). […] Finally, we compared the Aβ-lowering potency of two inhibitors, using either C99GVP or the wild type APP as substrate. As determined by ELISA, the respective IC50 values for the two substrates are essentially identical (FIG. 5E).

With “C99GVP-APLP2*: APLP2 JMD swap chimera of C99GVP retaining the pre-TMD GSNK motif of APP (SEQ ID NO:19) (LEDAEFRHDSGLEEERESVGPLREDFGSNKGAIIGLMVGGVVIATVIVITLVML)” the “effect on secreted Aβ / Aβ production compared with C99GVP control” value (gamma secretase) was “indistinguishable from the C99GVP control”.

With “N27S: C99GVP point mutant N27S in the GSNK motif (SEQ ID NO:45) (LEDAEFRHDSGYEVHHQKLVFFAEDVGSSKGAIIGLMVGGVVIATVIVITLVML)” the “effect on secreted Aβ / Aβ production compared with C99GVP control” value (gamma secretase) was “no obvious effect”.

With CC(C)C[C@H](NC(=O)[C@H](Cc1ccccc1)C[C@@H](O)[C@H](Cc1ccccc1)NC(=O)OC(C)(C)C)C(=O)N[C@@H](Cc1ccccc1)C(N)=O [L-685,458] the “luciferase reporter transactivation by AICD-GVP” value [1] was “block luciferase reporter transactivation”, the “γ/ε selectivity = IC50 AICD/IC50 Aβ” value [2] was 1.9 and the “secreted Aβ (Aβ40 and Aβ42)” value ([3]; 5 μM, 24 h, FIG. 5D) was “block secreted Aβ”. The “Aβ potency (IC50) with C99GVP versus native APP substrate” value ([3]; FIG. 5E) was “equal Aβ potency”.

“G25S: C99GVP point mutant G25S in the GSNK motif (SEQ ID NO:43) (LEDAEFRHDSGYEVHHQKLVFFAEDVSSNKGAIIGLMVGGVVIATVIVITLVML)” was tested, and the “effect on secreted Aβ / Aβ production compared with C99GVP control” value (gamma secretase) was “no obvious effect”.

With “C99GVP-K28S: C99GVP point mutant K28S in the GSNK motif (SEQ ID NO:46) (LEDAEFRHDSGYEVHHQKLVFFAEDVGSNSGAIIGLMVGGVVIATVIVITLVML)” the “drop of Aβ40” value (gamma secretase; versus C99GVP) was ~90% and the “reduction in total Aβ” value (gamma secretase; versus C99GVP) was ~90%.

In the case of “C99GVP-S26L: C99GVP point mutant S26L in the GSNK motif (SEQ ID NO:44) (LEDAEFRHDSGYEVHHQKLVFFAEDVGLNKGAIIGLMVGGVVIATVIVITLVML)”, the “drop of Aβ40” value (gamma secretase; versus C99GVP) is reported as 52.7±2.3% and the “reduction in total Aβ” value (gamma secretase; versus C99GVP) is reported as 65.7±8.5%.

B1: C99GVP-SLSS: C99GVP in which the GSNK motif was substituted with SLSS from APLP2 (SEQ ID NO:51) (protein)
chain: DAEFRHDSGYEVHHQKLVFFAEDVSLSSGAIIGLMVGGVVIATVIVITLVMLKKKKLLSSIEQACDICRLKKLKCSKEKPKCAKCLKNNWECRYSPKTKRSPLTRAHLTEVESRLERLEQLFLLIFPREDLDMILKMDSLQDIKALLTGLFVQDNVNKDAVTDRLASVETDMPLTLRQHRISATSSSEESSNKGQRQLTVSGIPGDLAPPTDVSLGDELHLDGEDVAMAHADALDDFDLDMLGDGDSPGPGFTPHDSAPYGALDMADFEFEQMFTDALGIDEYGGQYTSIHHGVVEVDAAVTPEERHLSKMQQNGYENPTYKFFEQMQN
In the case of B1, the “reduction in secreted Aβ” value (gamma secretase; versus C99GVP, FIGS. 9B and 9C) is reported as ~97%.
